The test system of one series is NB1. Put plainly: cells. Conditions: Homo sapiens.
Series [1] can be described thus: Inhibition of human recombinant RET Y719F using Biotin-EGPWLEEEEEAYGWMDF as substrate by TR-FRET assay. (In general: TR-FRET usually uses a lanthanide donor and a delayed reading to cut background.)
The nature of series [2]: Inhibition of RET G810R (unknown origin). Details: species or system Homo sapiens.
Series [3] has as its target Vascular endothelial growth factor receptor 2 (Homo sapiens, UniProt P35968). Nature of the series: Inhibition of recombinant VEGFR2 (unknown origin) incubated for 120 mins by Perkin Elmer electrophoretic mobility shift platform method.
Series [4] can be described thus: Inhibition of C-KIT (unknown origin) by kinomescan assay. Details: species or system Homo sapiens.
For series [5], the target named is RAF proto-oncogene serine/threonine-protein kinase (Homo sapiens, UniProt P04049). Nature of the series: Inhibition of CRAF (unknown origin) by kinomescan assay.
Chain of RAF proto-oncogene serine/threonine-protein kinase (P04049 whole entry): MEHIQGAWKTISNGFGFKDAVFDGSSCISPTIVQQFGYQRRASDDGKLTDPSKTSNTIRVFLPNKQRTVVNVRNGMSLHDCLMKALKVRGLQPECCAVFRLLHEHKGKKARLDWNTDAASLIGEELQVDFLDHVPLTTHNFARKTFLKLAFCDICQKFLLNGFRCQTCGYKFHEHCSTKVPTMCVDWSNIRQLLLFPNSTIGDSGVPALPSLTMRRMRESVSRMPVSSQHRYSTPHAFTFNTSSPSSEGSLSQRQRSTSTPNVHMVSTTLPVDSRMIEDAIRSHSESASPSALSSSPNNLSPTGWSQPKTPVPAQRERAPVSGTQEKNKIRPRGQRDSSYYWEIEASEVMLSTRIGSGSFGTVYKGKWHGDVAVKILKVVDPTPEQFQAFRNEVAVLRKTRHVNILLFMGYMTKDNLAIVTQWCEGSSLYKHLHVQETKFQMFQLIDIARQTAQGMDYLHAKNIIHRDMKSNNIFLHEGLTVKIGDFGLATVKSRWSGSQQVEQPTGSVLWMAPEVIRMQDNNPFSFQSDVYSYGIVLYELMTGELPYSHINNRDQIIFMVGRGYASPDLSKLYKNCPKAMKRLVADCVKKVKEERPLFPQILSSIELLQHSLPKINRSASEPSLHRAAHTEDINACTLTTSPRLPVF
In a further series the test system is COLO 205. Nature of the series: Cytotoxicity against human COLO 205 cells expressing BRAF V600E mutant incubated for 72 hrs by celltitre blue assay. The series is classed as functional.
The nature of series [6]: Cytotoxicity against HUVEC expressing VEGFR2 incubated for 72 hrs by celltitre blue assay. It counts as toxicity, cell-based. Conditions: human.
Another series has as its system Hs-578T. Nature of the series: Cytotoxicity against human Hs-578T cells expressing BRAF incubated for 72 hrs by celltitre blue assay. The series is classed as functional.
For another series, the system named is A-431. Put plainly: Cytotoxicity against human A-431 cells expressing C-KIT incubated for 72 hrs by celltitre blue assay. It counts as functional.
For series [7], the target named is T1, Tyrosine-protein kinase ABL1 (Homo sapiens, UniProt P00519). Nature of the series: Binding affinity to ABL (unknown origin) assessed as dissociation constant measured by ambit kinomescan assay.
T1 sequence (P00519 whole entry): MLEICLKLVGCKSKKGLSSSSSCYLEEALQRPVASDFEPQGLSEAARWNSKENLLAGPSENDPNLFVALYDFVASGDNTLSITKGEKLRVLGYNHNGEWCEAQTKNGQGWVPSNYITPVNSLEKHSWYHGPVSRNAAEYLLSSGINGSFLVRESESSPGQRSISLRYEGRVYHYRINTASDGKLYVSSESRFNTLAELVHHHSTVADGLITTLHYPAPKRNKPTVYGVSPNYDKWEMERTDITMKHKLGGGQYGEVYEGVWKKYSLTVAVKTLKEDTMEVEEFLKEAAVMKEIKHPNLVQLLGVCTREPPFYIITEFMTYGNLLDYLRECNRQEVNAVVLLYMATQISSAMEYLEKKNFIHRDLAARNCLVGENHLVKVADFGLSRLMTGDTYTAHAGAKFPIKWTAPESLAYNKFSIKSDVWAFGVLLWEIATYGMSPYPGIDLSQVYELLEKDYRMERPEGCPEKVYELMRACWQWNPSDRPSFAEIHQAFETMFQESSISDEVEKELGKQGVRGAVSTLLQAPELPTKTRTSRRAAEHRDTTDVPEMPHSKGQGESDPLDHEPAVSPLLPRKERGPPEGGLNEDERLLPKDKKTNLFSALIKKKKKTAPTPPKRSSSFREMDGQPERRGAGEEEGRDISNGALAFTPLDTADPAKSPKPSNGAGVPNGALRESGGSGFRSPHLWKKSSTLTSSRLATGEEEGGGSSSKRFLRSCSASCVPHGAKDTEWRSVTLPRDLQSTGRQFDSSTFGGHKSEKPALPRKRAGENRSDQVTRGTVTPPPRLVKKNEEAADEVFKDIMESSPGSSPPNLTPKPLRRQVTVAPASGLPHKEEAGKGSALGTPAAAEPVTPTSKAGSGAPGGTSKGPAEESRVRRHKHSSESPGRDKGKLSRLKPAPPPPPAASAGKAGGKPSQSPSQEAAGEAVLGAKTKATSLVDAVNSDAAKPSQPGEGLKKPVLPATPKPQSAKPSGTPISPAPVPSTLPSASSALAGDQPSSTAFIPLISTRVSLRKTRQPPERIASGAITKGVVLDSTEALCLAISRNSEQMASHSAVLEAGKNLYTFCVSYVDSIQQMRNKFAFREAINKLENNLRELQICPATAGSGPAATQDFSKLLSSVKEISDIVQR
A further series has as its system HeLa. Nature of the series: Cytotoxicity against human HeLa cells expressing CRAF incubated for 72 hrs by celltitre blue assay. The series is classed as functional.
Another series relates to A-375. Put plainly: Cytotoxicity against human A-375 cells expressing BRAF V600E mutant incubated for 72 hrs by celltitre blue assay. It counts as functional.
Series [8] in a line: Cytotoxicity against human TT-1 cells expressing RET incubated for 72 hrs by celltitre blue assay. It counts as functional.
Series [9] concerns the target T1, Tyrosine-protein kinase ABL1. Nature of the series: Inhibition of ABL (unknown origin) by kinomescan assay.
Series [10] in a line: Cytotoxicity against HUVEC expressing FLT-1 incubated for 72 hrs by celltitre blue assay. It counts as toxicity, cell-based. Conditions: human.
The subject of another series is LNCaP. Put plainly: Cytotoxicity against human LNCaP cells expressing BRAF incubated for 72 hrs by celltitre blue assay. The series is classed as functional.
A further series relates to K562. Put plainly: Cytotoxicity against human K562 cells expressing BCR-ABL incubated for 72 hrs by celltitre blue assay. The series is classed as functional.
For series [11], the target named is Proto-oncogene tyrosine-protein kinase receptor Ret (Homo sapiens) (UniProt P07949). Conditions: NIH3T3.
Chain of Proto-oncogene tyrosine-protein kinase receptor Ret (Homo sapiens) (P07949 whole entry): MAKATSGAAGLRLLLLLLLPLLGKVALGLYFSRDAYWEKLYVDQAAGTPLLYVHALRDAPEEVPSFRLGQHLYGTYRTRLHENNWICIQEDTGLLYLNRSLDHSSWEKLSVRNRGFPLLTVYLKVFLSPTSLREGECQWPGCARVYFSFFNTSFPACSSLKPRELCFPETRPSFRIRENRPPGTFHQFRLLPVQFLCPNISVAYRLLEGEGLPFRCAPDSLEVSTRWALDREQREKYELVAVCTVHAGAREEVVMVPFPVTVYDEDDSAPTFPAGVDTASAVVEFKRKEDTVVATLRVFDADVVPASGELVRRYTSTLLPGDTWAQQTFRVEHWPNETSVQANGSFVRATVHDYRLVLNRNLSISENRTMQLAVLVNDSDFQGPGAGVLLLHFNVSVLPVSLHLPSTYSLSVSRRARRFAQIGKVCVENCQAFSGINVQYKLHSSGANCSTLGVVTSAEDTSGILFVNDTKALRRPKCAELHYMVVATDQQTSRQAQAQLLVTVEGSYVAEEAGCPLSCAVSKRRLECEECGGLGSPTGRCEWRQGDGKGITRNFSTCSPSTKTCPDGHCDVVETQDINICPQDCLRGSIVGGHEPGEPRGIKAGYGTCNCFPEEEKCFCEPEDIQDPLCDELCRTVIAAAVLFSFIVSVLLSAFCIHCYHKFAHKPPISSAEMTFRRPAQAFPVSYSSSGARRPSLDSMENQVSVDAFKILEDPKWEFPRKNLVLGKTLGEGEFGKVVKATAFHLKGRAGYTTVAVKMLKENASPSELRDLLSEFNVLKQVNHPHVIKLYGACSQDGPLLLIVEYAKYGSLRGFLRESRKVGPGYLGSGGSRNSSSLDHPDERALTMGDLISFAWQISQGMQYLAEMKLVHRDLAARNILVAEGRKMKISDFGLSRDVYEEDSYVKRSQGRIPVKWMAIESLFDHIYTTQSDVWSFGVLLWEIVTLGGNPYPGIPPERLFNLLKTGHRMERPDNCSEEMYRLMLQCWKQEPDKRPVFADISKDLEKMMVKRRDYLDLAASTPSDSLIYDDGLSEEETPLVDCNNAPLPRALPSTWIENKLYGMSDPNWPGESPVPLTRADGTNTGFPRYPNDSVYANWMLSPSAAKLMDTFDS
The nature of series [12]: Inhibition of p38 (unknown origin). Set-up: species or system Homo sapiens.
Series [13] in a line: Inhibition of RET V804M (unknown origin). Details: species or system Homo sapiens.
Series [14] can be described thus: Inhibition of recombinant RET V804M (unknown origin) incubated for 120 mins by Perkin Elmer electrophoretic mobility shift platform method. Details: species or system Homo sapiens. A general note: Mobility shift assays separate free from complexed probe on a gel.

The term IC50 denotes the concentration needed to halve the response being measured. The GI50 is the concentration at which growth is held to half of that of the control. A high value points to less potent growth inhibition. The term Kd denotes a measure of binding affinity in units of concentration.

Some results are limits rather than exact numbers.

Chain of Vascular endothelial growth factor receptor 2 (P35968 whole entry): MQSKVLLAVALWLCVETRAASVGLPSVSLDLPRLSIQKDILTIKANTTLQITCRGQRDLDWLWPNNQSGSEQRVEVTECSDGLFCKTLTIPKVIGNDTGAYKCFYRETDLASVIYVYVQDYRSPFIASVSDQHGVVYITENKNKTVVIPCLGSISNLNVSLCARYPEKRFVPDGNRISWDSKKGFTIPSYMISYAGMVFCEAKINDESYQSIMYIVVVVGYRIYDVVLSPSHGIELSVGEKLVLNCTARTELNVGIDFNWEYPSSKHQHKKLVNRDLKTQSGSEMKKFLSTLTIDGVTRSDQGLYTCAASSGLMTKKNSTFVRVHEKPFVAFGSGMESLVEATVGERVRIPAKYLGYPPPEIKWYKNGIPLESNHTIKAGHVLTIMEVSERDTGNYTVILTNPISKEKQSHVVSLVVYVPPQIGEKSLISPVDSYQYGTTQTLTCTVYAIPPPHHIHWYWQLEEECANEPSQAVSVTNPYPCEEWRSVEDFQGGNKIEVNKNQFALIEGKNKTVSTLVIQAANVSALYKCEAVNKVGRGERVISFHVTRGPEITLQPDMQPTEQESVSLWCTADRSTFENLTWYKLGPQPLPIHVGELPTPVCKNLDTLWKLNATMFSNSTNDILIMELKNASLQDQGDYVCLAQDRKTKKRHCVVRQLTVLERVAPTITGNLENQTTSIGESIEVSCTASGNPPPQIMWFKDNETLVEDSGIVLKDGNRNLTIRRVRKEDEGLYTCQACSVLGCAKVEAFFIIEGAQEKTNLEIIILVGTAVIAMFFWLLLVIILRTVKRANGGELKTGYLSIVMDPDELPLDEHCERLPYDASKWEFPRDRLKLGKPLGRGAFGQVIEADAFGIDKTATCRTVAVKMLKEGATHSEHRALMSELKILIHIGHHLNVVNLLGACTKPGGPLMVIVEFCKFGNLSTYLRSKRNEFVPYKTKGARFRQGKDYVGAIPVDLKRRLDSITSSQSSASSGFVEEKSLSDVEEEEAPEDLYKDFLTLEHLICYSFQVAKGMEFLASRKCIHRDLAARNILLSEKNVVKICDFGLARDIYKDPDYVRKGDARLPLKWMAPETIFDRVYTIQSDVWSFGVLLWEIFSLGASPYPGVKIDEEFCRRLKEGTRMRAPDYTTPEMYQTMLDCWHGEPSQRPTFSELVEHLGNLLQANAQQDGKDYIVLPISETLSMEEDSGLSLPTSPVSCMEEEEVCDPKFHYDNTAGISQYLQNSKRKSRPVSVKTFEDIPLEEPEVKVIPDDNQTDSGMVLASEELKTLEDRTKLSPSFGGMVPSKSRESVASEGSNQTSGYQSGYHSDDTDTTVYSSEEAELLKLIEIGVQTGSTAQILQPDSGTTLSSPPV

Turning to `CCc1cc2c(cc1N1CCC(N3CCOCC3)CC1)C(C)(C)c1[nH]c3cc(C#N)ccc3c1C2=O` [ALECTINIB], the IC50 was 4.5 nM in the series on NB1 and 14 nM in [1].

With `COC1(C(=O)N[C@@H](C)c2ccc(-n3cc(F)cn3)nc2)CCC(c2nc(C)cc(Nc3cc(C)[nH]n3)n2)CC1` (some centres undefined), the IC50 was > 500 nM in [2] and 35 nM in series [3].

Turning to `C[C@H]1CNC(=O)c2cnn3cc4c(nc23)N(Cc2cc(F)cnc2O1)[C@@H]1CCC[C@@H]1O4` [ENBEZOTINIB], the IC50 in series [2] came out at 17 nM.

Consider `COc1cc2ncnc(Oc3cccc(NC(=O)Nc4cc(C(C)(C)C(F)(F)F)on4)c3)c2cc1OC` [CEP-32496], for which the IC50 in series [4] stood at 1 nM; in series [5], 146 nM; in [9], 6 nM. Moreover, the GI50 with COLO 205 was 60 nM; with Hs-578T, 2740 nM; with A-431, 1000 nM; in the series on HeLa, ≥ 3000 nM; in the series on A-375, 84 nM; in [8], 21 nM. For the same compound, the GI50 in the series on LNCaP stood at 6630 nM; in the series on K562, 70 nM. In addition, the GI50 at 72 h in [6] was ≥ 700 nM; in [10], ≥ 1000 nM. Also, in [7], the Kd turned out to be 2.8 nM.

The compound `CNC(=O)c1cc(Oc2ccc(NC(=O)Nc3ccc(Cl)c(C(F)(F)F)c3)cc2)ccn1` [SORAFENIB] showed a GI50 in [11] of 47 nM. In addition, the IC50 stood at 38 nM in [12] and 7.9 nM in series [13].

Consider `COc1ccc(CN2C3CC2CN(c2ccc(-c4cc(OCC(C)(C)O)cn5ncc(C#N)c45)cn2)C3)cn1` [SELPERCATINIB], for which the IC50 in [14] was 0.8 nM; in series [2], > 500 nM.

Source of the values: ChEMBL document CHEMBL5150004, “Targeting Rearranged during Transfection in Cancer: A Perspective on Small-Molecule Inhibitors and Their Clinical Development” (J Med Chem, 2021).
